Here are results for 5 molecules from US7824914B2, “Flavonoids-rich tissues from Neomarica gracilis and methods for culturing the same” (Tatung Company, priority 2006, dated 2010).

Values joined by “and” are separate entries in the source; they are usually repeats but may differ in a detail not shown here. Equal entries are not always repeated.

Common to all, as to type: cell-based, Neomarica gracilis
The subject of assay [1] is N. gracilis rhizome tissue. Put plainly: Effect of plant growth regulators on N. gracilis rhizome tissue growth and tectorigenin content in flask culture. The method, then: (2) To determine the effect of plant growth regulators (PGR), sprouts from liquid cultured N. gracilis rhizome tissue were removed with a scalpel. The rhizome tissue was inoculated at an inoculum weight of 3% (g F.W./50 ml) in culture medium containing MS basic medium supplemented with PGRs as shown in Table 2. The culture medium was changed every two weeks. The cultured tissue was weighted at each medium change for a total of eight weeks.
N. gracilis rhizome tissue was frozen at −80° C. for 10 hours, dried in a refrigerated vacuum drier (VirTis Freezemobile 12XL) overnight, and grinded. 0.5 g of dried and grinded tissue was suspended in adequate amount of methanol in a 10 ml flask, […] incubated at 60° C. with ultrasonic vibration for 1 hour, and cooled. Methanol was then added to the suspension to a final volume of 10 ml. The suspension was filtered with Whatman No. 1 filter paper. The filtered solution was sealed in brown sample vials and placed in cold room for future experiments.
(§1) The tectorigenin content of the tissue extract was determined by HPLC analysis using a Cosmosil 5 C18-AR-II column (5 μm, 4.6×250 mm), a Lichrospher® 100 RP-18e Guard column (45×4.6 mm, 5 μm, Merck), a Degasser (ERC-3415α) Pump, a Waters 600E Autosampler and Injector (Schambeck SGD GmbH S5200), a Waters TM 486 UV/VIS Detector, and an Integrator (SISC Xunhua Ltd.). The analysis was performed using a methanol:H2O (0.1% Acetic acid) ratio of 55:45, a flowrate of 0.8 ml/min, and a detection wavelength of 265 nm. The tectorigenin peak of the standard appeared at about 13 min appear.
N. gracilis rhizome tissue was inoculated at an inoculum weight of 3% (g F.W./[…]) in culture medium containing MS supplemented with various amount of PGRs (Table 2). The culture medium was changed and the fresh weight of the tissues was measured every two weeks. Significant increases in fresh weight were observed during 6-8 weeks of culture (FIG. 3).

Assay [2] concerns N. gracilis rhizome tissue. As to the kind of experiment: Effect of ancymidol on sprout formation and tectorigenin content of cultured rhizome tissue. The method, then: (4) To determine ancymidol's effect on sprout formation and tectorigenin content, liquid cultured N. gracilis rhizome tissue was inoculated at an inoculum weight of 3% (g F.W./100 ml) to a subculture medium containing MS, 0.5 mg/L BA, 0.1 mg/L 2,4-D and 0.84 mg/L NAA. At day 7 and 14 of the culture, sterilely filtered (0.2 um) ancymidol was added to the culture medium to a final concentration of 0.5, 1.0, or 2.0 mg/L. The growth of the tissue was monitored and the tectorigenin content analyzed.
as §1
Liquid cultured N. gracilis rhizome tissue was inoculated at an inoculum weight of 3% (g F.W./100 ml) to a subculture medium containing MS, 0.5 mg/L BA, 0.1 mg/L 2,4-D and 0.84 mg/L NAA. At day 7 and 14 of the culture, sterilely filtered (0.2 um) ancymidol was added to the culture medium to a final concentration of 0.5, 1.0, or 2.0 mg/L. The growth of the tissue was monitored and the tectorigenin content analyzed.

Assay [3] concerns N. gracilis rhizome tissue. Put plainly: Effect of PGRs on growth and tectorigenin content in TIS culture. The note with it: for Growth rate: (Final F.W. − Initial F.W.)/Initial F.W.; for F.W. / Tectorigenin: week 4. The method, then:
(2) To determine the effect of PLRs on the grows of N. gracilis and the tectorigenin content influence, ten pieces of liquid cultured N. gracilis rhizome tissue were inoculated in culture media containing MS and PGRs described in samples MS0, TI3, TI4, TI5 and TI6 of Table 3. The culture media were replaced on week 2 and the tissues were harvested on week 4 and analyzed for tectorigenin content.
as §1
To determine the effect of PGRs on the tectorigenin content, ten pieces of liquid cultured N. gracilis rhizome tissue (1.5 g each) were inoculated in culture media containing MS and PGRs described in samples MS0, TI3, TI4, TI5 and TI6 of Table 3. The tissues were harvested on week 4 and analyzed for tectorigenin content.

The test system of assay [4] is N. gracilis rhizome tissue. As to the kind of experiment: Effect of inoculum weight and PGRs on tissue growth in TIS culture. The note with it: 1 mg/L kinetin, inoculum weight 1.5 g, 30 days. Here is the method: (1) To determine the effect of the inoculation weight on tissue growth, the TIS culture chamber was divided into four areas. Liquid cultured N. gracilis rhizome tissue was inoculated at 1.5, 3, 6 and 9 g in each area. The culture medium was an MS medium supplemented with PGR as described in samples T12, T17 and T18 of Table 3. The tissues were cultured under conditions detailed in the Plantima® user's manual and immersed for two minutes every three hours. The cultured tissue was weighted and the medium replaced every ten days.
The TIS culture chamber was divided into four areas and liquid cultured N. gracilis rhizome tissue was inoculated at an inoculum weight of 1.5, 3, 6 and 9 g in each area. The culture medium was MS medium supplemented with PGR as described in samples TI2, TI7 and TI8 of Table 3. The cultured tissue was weighted every ten days. […] All other inoculum weights/PGR combinations led to slower growth (FIG. 7).

Assay [5] has as its system N. gracilis rhizome tissue. Put plainly: Tectorigenin content during growth of rhizome tissue in flask culture (weekly for 8 weeks). Conditions: 0.1 mg/L NAA, week 1, flask culture. The method, then:
(3) To determining the growth curve of N. gracilis rhizome tissue and the tectorigenin content, sprouts from liquid cultured N. gracilis rhizome tissues were removed with a scalpel. The rhizome tissue was inoculated at an inoculum weight (g F.W./50 ml) in culture medium containing the MS basic medium supplemented with 0.1 mg/L NAA or a mixture of 1 mg/L NAA and 1.0 mg/L 2,4-D. The tissues were weighted and analyzed for tectorigenin content every week for eight consecutive weeks.
as §1
Rhizome tissue was inoculated at an inoculum weight of 3% (g F.W./50 ml) in culture medium containing MS basic medium supplemented with 0.1 mg/L NAA or a mixture of 1 mg/L NAA and 1.0 mg/l 2,4-D. The tissues were weighted and analyzed for tectorigenin content every week for eight consecutive weeks.

Setting [6] is: 2,4-D 0.1 mg/l, NAA 0, 8 weeks flask culture.
Where [7] appears, read: 2,4-D 1.0 mg/l, NAA 0, 8 weeks flask culture.
Setting [8] is: IAA 0.1 mg/L, Kinetin 0, 8 weeks flask culture.
[9] abbreviates: IAA 0.5 mg/L, Kinetin 0, 8 weeks flask culture.
The mark [10] stands for this setting: IAA 1 mg/L, Kinetin 0, 8 weeks flask culture.
The mark [11] stands for this setting: NAA 0.1 mg/l, 2,4-D 0, 8 weeks flask culture.
The mark [12] stands for this setting: NAA 0.5 mg/l, 2,4-D 0, 8 weeks flask culture.
Where [13] appears, read: NAA 1.0 mg/l, 2,4-D 0, 8 weeks flask culture.
[14] abbreviates: NAA 2.0 mg/l, 2,4-D 0, 8 weeks flask culture.

For the molecule `O=C(O)COc1ccc(Cl)cc1Cl` [2,4-D, 2,4-dichlorophenoxyacetic acid], in assay [1] (setting [6]), the Dry weight was 0.92 ± 0.15 bc g and the Tectorigenin was 38.9 ± 1.17 cd mg/kg D.W. In assay [1] (setting [7]), this molecule yielded a Dry weight of 1.17 ± 0.21 ab g and a Tectorigenin of 36.7 ± 0.33 cd mg/kg D.W.
Turning to `COc1ccc(C(O)(c2cncnc2)C2CC2)cc1` (stereo not shown) [Ancymidol, ancymidol], the “effect on tectorigenin content (in words)” value in assay [2] (0.5 or 2.0 mg/L added on day 14) is recorded as “reduced tectorigenin content”; in assay [2] (added on day 7) it was “did not affect the tectorigenin content”. The Tectorigenin in assay [2] (Ancymidol 0.5 mg/L added day 7, 3 weeks of culture) was 28.31 ± 0.11 b mg/kg D.W; in assay [2] (Ancymidol 0.5 mg/L added day 14, 3 weeks of culture), 18.59 ± 0.07 c mg/kg D.W; in assay [2] (Ancymidol 1.0 mg/L added day 7, 3 weeks of culture) it was 27.74 ± 0.08 b mg/kg D.W; in assay [2] (Ancymidol 1.0 mg/L added day 14, 3 weeks of culture), 30.81 ± 0.35 a mg/kg D.W; in assay [2] (Ancymidol 2.0 mg/L added day 7, 3 weeks of culture), 35.65 ± 0.18 a mg/kg D.W; in assay [2] (Ancymidol 2.0 mg/L added day 14, 3 weeks of culture), 13.36 ± 0.13 d mg/kg D.W. Moreover, in assay [2] (added on day 7), the “sprout formation (morphology)” value is “significant reduction of sprout formation”.
For `O=C(O)Cc1c[nH]c2ccccc12` [IAA, indole-3-acetic acid], the Dry weight in assay [1] (setting [8]) stood at 1.26 ± 0.22 b g; in assay [1] (setting [9]) it was 1.02 ± 0.11 bc g; in assay [1] (setting [10]), 1.70 ± 0.08 a g. Moreover, the Tectorigenin in assay [1] (setting [8]) was 11.8 ± 8.4 b mg/kg D.W; in assay [1] (setting [9]), 37.6±4.9 mg/kg D.W. and 37.6 ± 4.9 a mg/kg D.W; in assay [1] (setting [10]), 29.0 ± 0.29 c mg/kg D.W.
For `c1coc(CNc2ncnc3[nH]cnc23)c1` [Kinetin, kinetin], in assay [3] (Kinetin 1.0 mg/l), the Growth rate was 2.07 ± 0.15, the F.W. turned out to be 46.12 ± 2.18 g and the Tectorigenin turned out to be 10 ± 0.15 mg/kg D.W. Also, the “change of tectorigenin content (in words)” value in assay [1] (flask culture, 8 weeks) was “did not result in any increase in the tectorigenin content”. Moreover, in assay [4], the fresh weight came out at 6.76 ± 0.33 g and the “fresh weight as fold of the inoculum weight” value was determined as 4.5 fold.
As to `O=C(O)Cc1cccc2ccccc12` [NAA, α-naphthaleneacetic acid], the Growth rate worked out at 1.71 ± 0.14 in assay [3] (NAA 0.1 mg/l) and 1.10 ± 0.21 in assay [3] (NAA 0.5 mg/l). Also, the F.W. is 40.65 ± 2.09 g in assay [3] (NAA 0.1 mg/l) and 31.47 ± 3.12 g in assay [3] (NAA 0.5 mg/l). Further, the Tectorigenin in assay [3] (NAA 0.1 mg/l) is 38 ± 0.57 mg/kg D.W; in assay [3] (NAA 0.5 mg/l) it was 33 ± 0.38 mg/kg D.W; in assay [1] (setting [11]), 55.5±0.67 mg/kg D.W. and 55.5 ± 0.67 ab mg/kg D.W; in assay [1] (setting [12]) it was 59.9±0.23 mg/kg D.W. and 58.9±0.23 mg/kg D.W. and 58.9 ± 0.23 ab mg/kg D.W; in assay [1] (setting [13]), 49.0 ± 0.81 bc mg/kg D.W; in assay [1] (setting [14]) it was 9.4 ± 0.22 e mg/kg D.W. The “tectorigenin content (highest, during week 1)” value in assay [5] is recorded as 56±2.82 mg/kg D.W. Also, the Dry weight turned out to be 1.39 ± 0.32 a g in assay [1] (setting [11]), 1.03 ± 0.31 bc g in assay [1] (setting [12]), 1.05 ± 0.20 bc g in assay [1] (setting [13]) and 0.75 ± 0.02 cd g in assay [1] (setting [14]).
